Data reported in patent US9556153B1, “JAK1 inhibitors” (Eli Lilly and Company, priority 2015, dated 2017).

Assays:
HCC827 xenograft tumor = test: Efficacy Study in HCC827 Xenograft Tumor Model; type: in vivo, mouse; details: oral gavage, 28 days, HCC827 xenograft mice
Description: Efficacy Study in HCC827 Xenograft Tumor Model
The purpose of this assay is to measure the ability of compounds to inhibit tumor growth in the HCC827 xenograft mouse model. Grow HCC827 cells (ATCC# CRL-2868, Lot#59392891) according to ATCC specifications at the lowest possible passage number available. Culture cells and maintain in RPMI-1640 supplemented with 10% FBS and incubate at 37° C. in 5% CO2. Harvest cells from flasks using TryPLE, rinse twice in DPBS, resuspend in HBSS, and mix with BD Biosciences basement membrane matrix (MATRIGEL®) to cell suspension to achieve a 1:1 cell/matrix ratio yielding an inoculation volume of 0.2 ml cell/matrix suspension containing 5e^6 cells. Maintain cell suspensions on ice throughout the inoculation procedure and start implantations within one hour after cell culture harvest. Administer implantations subcutaneously in the right rear flank of female CB17 SCID mice obtained from Harlan (18-20 g). Feed mice Harlan Teklad Protein Extruded 2920X ad libitum and provide water with the rack watering system. Allow the implanted tumor cells to grow as a solid tumor and measure twice a week along with body weight beginning the seventh day after implantation. Determine tumor volumes using the calculation: 0.536*L*W^2. After tumor volume reaches approximately 150-200 mm^3, randomize animals and place into groups containing 5-8 animals each. Formulate the compounds in 1% HEC vehicle containing 0.25% Tween 80 and 0.05% antifoam with 1.1 molar equivalent of methanesulfonic acid to form an in situ salt (1.1 mL of 1N methanesulfonic acid per (insert molecular weight) mg of compound). Store test compound at RT. Formulate compounds once per week, and store at RT. […] Calculate doses based on the most recent group mean body weight. Administer compounds by oral gavage for 28 days either BID or QD depending on dosage.

JAK2 = JAK2 (Homo sapiens, UniProt O60674); test: AlphaScreen SureFire p-STAT5 (p-Tyr694/699)-EPO-JAK2 cell-based assay (UT-7 cells); design: purchased Invitrogen; details: EPO 45 ng/mL, n=5, read-out: IC50, EPO-stimulated pSTAT5 JAK2 cell-based assay
Chain of JAK2 (O60674 whole entry): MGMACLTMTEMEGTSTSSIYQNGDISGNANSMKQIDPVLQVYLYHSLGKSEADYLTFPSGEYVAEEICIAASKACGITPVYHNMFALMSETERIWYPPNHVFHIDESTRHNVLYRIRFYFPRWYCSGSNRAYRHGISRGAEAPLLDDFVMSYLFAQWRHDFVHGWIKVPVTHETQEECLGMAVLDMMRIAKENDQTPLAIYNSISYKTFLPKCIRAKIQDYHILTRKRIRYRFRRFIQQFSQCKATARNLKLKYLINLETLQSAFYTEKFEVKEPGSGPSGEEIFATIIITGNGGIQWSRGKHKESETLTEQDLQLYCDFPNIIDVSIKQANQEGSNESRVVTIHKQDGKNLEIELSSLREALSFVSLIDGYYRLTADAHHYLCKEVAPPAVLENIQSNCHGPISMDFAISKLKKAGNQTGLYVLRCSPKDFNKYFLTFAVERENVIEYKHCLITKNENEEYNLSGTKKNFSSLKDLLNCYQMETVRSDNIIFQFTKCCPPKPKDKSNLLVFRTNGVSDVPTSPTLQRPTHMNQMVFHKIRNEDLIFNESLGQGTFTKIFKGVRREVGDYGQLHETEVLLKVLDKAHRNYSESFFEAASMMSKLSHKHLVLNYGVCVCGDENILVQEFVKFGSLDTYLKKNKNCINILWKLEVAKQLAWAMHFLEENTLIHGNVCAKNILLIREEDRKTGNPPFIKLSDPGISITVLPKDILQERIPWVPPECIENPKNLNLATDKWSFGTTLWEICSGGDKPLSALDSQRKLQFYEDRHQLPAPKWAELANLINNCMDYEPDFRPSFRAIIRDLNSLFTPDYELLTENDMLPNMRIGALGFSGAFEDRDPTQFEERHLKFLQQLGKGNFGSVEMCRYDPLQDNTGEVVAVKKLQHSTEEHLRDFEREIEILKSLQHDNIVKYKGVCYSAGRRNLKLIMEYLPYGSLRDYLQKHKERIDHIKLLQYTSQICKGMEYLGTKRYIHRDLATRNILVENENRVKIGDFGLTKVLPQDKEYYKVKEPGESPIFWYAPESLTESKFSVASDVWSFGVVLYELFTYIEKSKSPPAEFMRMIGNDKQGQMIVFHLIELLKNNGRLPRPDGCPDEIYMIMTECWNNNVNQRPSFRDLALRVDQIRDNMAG
Description: AlphaScreen SureFire Protocol p-STAT5 (p-Tyr694/699)-EPO-JAK2 Cell-Based Assay
The fold selectivity of test compounds for JAK1 over JAK2 is determined by a cellular assay, in which EPO is used to activate JAK2-STAT5 pathway, and pSTAT5 is used as the readout.
Starve UT-7 cells overnight in DMEM medium with 0.5% […] (FBS) and 1× Pen/Strep at 37° C. (without GM-CSF). Plate 50000 cells per well in BD 96 well black plates with clear bottoms (in medium without FBS and GM-CSF). Maintain the plates at RT for 30-60 minutes before incubating overnight at 37° C. and 5% CO2. Count cells using Vi-Cell counter, use a cell suspension at 500000 cells/mL and plated 100 μL/well in […] Biocoat plates Catalog #354640. […]
(§1) Follow the following steps sequentially: make acceptor mix (activation buffer/reaction buffer/acceptor beads); transfer 4 μL lysate from 96 well plates to 384 well-Proxiplate; add 5 μL acceptor mix to 384 proxiplate plate(s) with multidrop combi; seal plates with aluminum seal; shake 1-2 minutes on plate shaker; incubate plate at RT for 2 hr with gentle shaking; make donor mix (donor beads in dilution buffer); add 2 μl donor mix to assay plates with multidrop combi; seal plates with aluminum seal; shake 1-2 minutes on plate shaker; incubate at RT for 2 hr with gentle shaking; read plate with Envision; protocol AlphaScreen Surefire 384.

JAK1 = JAK1 (Homo sapiens, UniProt P23458); test: AlphaScreen SureFire IL6-TF-1-JAK1 cell-based assay (pSTAT3 detection); design: endogenous in cells; host or cells: TF-1 cells; details: TF-1 cells, IL6 30 ng/mL; n=10; read-out: IC50, IL6-stimulated TF-1 JAK1 cell-based assay
Chain of JAK1 (P23458 whole entry): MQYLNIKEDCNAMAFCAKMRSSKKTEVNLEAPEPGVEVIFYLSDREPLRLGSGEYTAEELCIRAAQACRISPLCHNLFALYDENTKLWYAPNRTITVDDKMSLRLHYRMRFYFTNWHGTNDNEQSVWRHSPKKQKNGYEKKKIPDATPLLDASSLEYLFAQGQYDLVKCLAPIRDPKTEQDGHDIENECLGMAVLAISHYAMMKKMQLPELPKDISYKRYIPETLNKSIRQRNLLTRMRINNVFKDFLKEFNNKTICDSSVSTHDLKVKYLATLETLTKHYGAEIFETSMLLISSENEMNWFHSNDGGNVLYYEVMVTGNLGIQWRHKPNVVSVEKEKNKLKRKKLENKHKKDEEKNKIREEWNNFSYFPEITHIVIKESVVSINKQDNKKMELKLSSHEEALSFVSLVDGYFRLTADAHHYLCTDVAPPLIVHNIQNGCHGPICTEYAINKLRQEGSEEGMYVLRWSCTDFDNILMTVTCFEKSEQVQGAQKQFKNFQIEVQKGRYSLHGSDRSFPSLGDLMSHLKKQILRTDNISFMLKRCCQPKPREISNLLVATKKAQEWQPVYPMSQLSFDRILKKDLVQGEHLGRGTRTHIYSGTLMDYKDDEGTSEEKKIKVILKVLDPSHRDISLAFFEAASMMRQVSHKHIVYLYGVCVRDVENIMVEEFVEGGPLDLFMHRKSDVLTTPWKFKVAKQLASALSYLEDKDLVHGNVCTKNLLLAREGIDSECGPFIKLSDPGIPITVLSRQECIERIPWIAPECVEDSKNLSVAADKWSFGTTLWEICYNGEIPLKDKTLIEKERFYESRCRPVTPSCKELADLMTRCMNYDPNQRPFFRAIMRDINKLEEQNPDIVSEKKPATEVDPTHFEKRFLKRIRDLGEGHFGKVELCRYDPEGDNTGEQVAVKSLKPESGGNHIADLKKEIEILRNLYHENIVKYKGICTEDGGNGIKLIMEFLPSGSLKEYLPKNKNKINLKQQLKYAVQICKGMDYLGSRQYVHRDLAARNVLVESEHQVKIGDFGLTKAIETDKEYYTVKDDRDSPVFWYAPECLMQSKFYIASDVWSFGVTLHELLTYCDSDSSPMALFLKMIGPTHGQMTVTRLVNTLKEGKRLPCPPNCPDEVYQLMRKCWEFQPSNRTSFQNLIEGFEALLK
Description: AlphaScreen SureFire Protocol […]-(p-Tyr705)-IL6-TF-1-JAK1 Cell-Based Assay
The JAK1 cell based assay described below is used to determine the JAK1 cellular potency of test compounds.
Starve TF-1 cells in DMEM medium with 0.5% […] and 1× Pen/Strep at 37° C. Plate 100K cells per well in BD 96 well black plates with clear bottoms. Maintain the plates at RT for 30-60 minutes before incubating overnight at 37° C. and 5% CO2. Count cells using Vi-Cell counter, using a cell suspension at […] and plated 100 μL/well in […] Biocoat plates (Catalog #354640).
Prepare compounds at 1:3 serial dilutions in DMSO and further dilute into the medium. Test compounds in a range of 10 point concentrations from 20,000 to 1 nM. Add diluted compound to corresponding cell plates. […]
as §1, with “Perform” for “Follow”, “well-Proxiplates;” for “well-Proxiplate;”, “and” for “with multidrop combi;”, “μL” for “μl”, “plates;” for “plates with multidrop combi;”

IC50 (JAK2): 11.8 µM
IC50 (JAK1): 0.087 µM
SMILES: Cc1cc(Nc2cc(O[C@H]3CC[C@@H](NC[C@@H](O)C(F)(F)F)CC3)cc3c2ncn3C)nn1C [Example 1, (2R)-3-{[cis-4-({4-[(1,5-Dimethyl-1H-pyrazol-3-yl)amino]-1-methyl-1H-benzimidazol-6-yl}oxy)cyclohexyl]amino}-1,1,1-trifluoropropan-2-ol]
tumor growth inhibition (HCC827 xenograft tumor; 30 mg/kg BID): 31%
tumor regression (HCC827 xenograft tumor; 60 mg/kg BID): 22%
tumor regression (HCC827 xenograft tumor; 120 mg/kg QD): 22%
